≈ marks a conversion by molar mass, not a printed value.
System: Toxoplasma gondii RH strain
Assay: [3H]-uracil incorporation assay in VERO host cells

## Nc1ccc(S(=O)(=O)Nc2ncccn2)cc1 [Sulfadiazine, reference compound]
1 µg/ml
  Proliferation of Tg ± SD: 104.59 ±4.12%
5 µg/ml
  Proliferation of Tg ± SD: 96.71 ±3.85%
25 µg/ml
  Proliferation of Tg ± SD: 78.58 ±4.67%
50 µg/ml
  Proliferation of Tg ± SD: 67.99 ±7.73%
125 µg/ml
  Proliferation of Tg ± SD: 65.58 ±4.80%
250 µg/ml
  Proliferation of Tg ± SD: 61.79 ±3.13%
500 µg/ml
  Proliferation of Tg ± SD: 56.68 ±3.64%
1250 µg/ml
  Proliferation of Tg ± SD: 45.17 ±1.03%
2500 µg/ml
  Proliferation of Tg ± SD: 45.36 ±0.58%
Toxoplasma gondii, Vero, read-out: IC50 anti-Tg
  IC50: 936 mg/L (≈ 3.74 mM)

From PMC6133161, “Thiazoles with cyclopropyl fragment as antifungal, anticonvulsant, and anti-Toxoplasma gondii agents: synthesis, toxicity evaluation, and molecular docking study” (Medicinal Chemistry Research, 2018)
